In patent US11964052B2, “Lipid compounds and lipid nanoparticle compositions” (SUZHOU ABOGEN BIOSCIENCES CO., LTD., priority 2021, dated 2024):

Tests used:
Format in all cases: physicochemical
[1] = Apparent pKa of LNP formulations, TNS fluorescence assay; details: LNP cationic lipid/DSPC/cholesterol/DMG-PEG 50/10/38.5/1.5 mol %, pH 3 to 9
Method: As reported in literature, the apparent pKa of LNP formulations correlates with the delivery efficiency of LNPs for nucleic acids in vivo. The apparent pKa of each formulation was determined using an assay based on fluorescence of 2-(p-toluidino)-6-napthalene sulfonic acid (TNS). LNP formulations comprising of cationic lipid/DSPC/cholesterol/DMG-PEG (50/10/38.5/1.5 mol %) in PBS were prepared as described above. TNS was prepared as a 300 uM stock solution in distilled water. LNP formulations were diluted to 0.1 mg/ml total lipid in 3 mL of buffered solutions containing 50 mM sodium citrate, 50 mM sodium phosphate, 50 mM sodium borate, and 30 mM sodium chloride where the pH ranged from 3 to 9. An aliquot of the TNS solution was added to give a final concentration of 0.1 mg/ml and following vortex mixing fluorescence intensity was measured at room temperature in a Molecular Devices Spectramax iD3 spectrometer using excitation and mission wavelengths of 325 nm and 435 nm. A sigmoidal best fit analysis was applied to the fluorescence data and the pKa value was measured as the pH giving rise to half-maximal fluorescent intensity.

[2] = Encapsulation efficiency of lipid nanoparticles, Quant-it Ribogreen RNA quantification assay; details: LNP with mRNA
Method: (§1) Briefly, a cationic lipid provided herein, DSPC, cholesterol, and PEG-lipid were solubilized in ethanol at a molar ratio of 50:10:38.5:1.5, and mRNA were diluted in 10 to 50 mM citrate buffer, pH=4. The LNPs were prepared at a total lipid to mRNA weight ratio of approximately 10:1 to 30:1 by mixing the ethanolic lipid solution with the aqueous mRNA solution at a volume ratio of 1:3 using a microfluidic apparatus, total flow rate ranging from 9-30 mL/min. Ethanol were thereby removed and replaced by DPBS using dialysis. Finally, the lipid nanoparticles were filtered through a 0.2 μm sterile filter.
(§2) Lipid nanoparticle size were determined by dynamic light scattering using a Malvern Zetasizer Nano ZS (Malvern UK) using a 173° backscatter detection mode. The encapsulation efficiency of lipid nanoparticles were determined using a Quant-it Ribogreen RNA quantification assay kit (Thermo Fisher Scientific, UK) according to the manufacturer's instructions.

[3] = Lipid nanoparticle size and polydispersity by dynamic light scattering (Malvern Zetasizer Nano ZS); details: LNP of cationic lipid/DSPC/cholesterol/PEG-lipid 50:10:38.5:1.5 with mRNA
Method: as §1, §2

| Structure (SMILES) | Apparant Pka [1] | Encapsulation Efficiency [2] [%] | polydispersity [3] | size (nm) [3] [nm] |
| --- | --- | --- | --- | --- |
| CCCCCCCCCCCCOCC(CN(CCCCCC(=O)OCC(CCCCCC)CCCCCCCC)CCN(CCO)C1CCCCC1)OC(C)=O (stereo not shown) [Compound 21] | 5.49 | 85.5 | 0.221 | 74.88 |
| CCCCCCCCCCCCOCC(CN(CCCCCC(=O)OCC(CCCCCC)CCCCCCCC)CCN(CCO)C1CC1)OCCCCCC (stereo not shown) [Compound 22] | 5.457 | 83.5 | 0.206 | 68.67 |
| CCCCCCCCCCCCOCC(CN(CCCCCC(=O)OCC(CCCCCC)CCCCCCCC)CCN(CCO)C1CCC1)OCCCCCC (stereo not shown) [Compound 23] | 5.993 | 88.5 | 0.076 | 74.73 |
| CCCCCCCCCCCCOCC(CN(CCCCCC(=O)OCC(CCCCCC)CCCCCCCC)CCN(CCO)C1CCCC1)OCCCCCC (stereo not shown) [Compound 24] | 6.005 | 93.0 | 0.094 | 56.39 |
| CCCCCCCCCCCCOCC(CN(CCCCCC(=O)OCC(CCCCCC)CCCCCCCC)CCN(CCO)C1CCCCCC1)OCCCCCC (stereo not shown) [Compound 26] | 5.696 | 93.30 | 0.153 | 55.8 |
| CCCCCCCCCCCCOCC(CN(CCCCCC(=O)OCC(CCCCCC)CCCCCCCC)CCN(CCO)C1CC1)OCCCCCCCCCCCC (stereo not shown) [Compound 27] | 5.351 | 73.3 | 0.139 | 65.62 |
| CCCCCCCCCCCCOCC(CN(CCCCCC(=O)OCC(CCCCCC)CCCCCCCC)CCN(CCO)C1CCC1)OCCCCCCCCCCCC (stereo not shown) [Compound 28] | 5.905 | 86.9 | 0.2 | 54.96 |
| CCCCCCCCCCCCOCC(CN(CCCCCC(=O)OCC(CCCCCC)CCCCCCCC)CCN(CCO)C1CCCC1)OCCCCCCCCCCCC (stereo not shown) [Compound 29] | 5.699 | 80.1 | 0.110 | 53.73 |
| CCCCCCCCCCCCOCC(CN(CCCCCC(=O)OCC(CCCCCC)CCCCCCCC)CCN(CCO)C1CCCCC1)OCCCCCCCCCCCC (stereo not shown) [Compound 30] | 5.409 | 92.7 | 0.107 | 49.64 |
| CCCCCCCCCCCCOCC(CN(CCCCCC(=O)OCC(CCCCCC)CCCCCCCC)CCN(CCO)C1CCCCCC1)OCCCCCCCCCCCC (stereo not shown) [Compound 31] | 5.704 | 80.1 | 0.127 | 51.35 |
| CCCCCCCCC(CCCCCC)CC(=O)OCC(CN(CCO)C1CCC1)OC(=O)CC(CCCCCC)CCCCCCCC (stereo not shown) [Compound 32] | 3.519 | 44.6 | 0.232 | 59.1 |
| CCCCCCCCCCCCOCC(CN(CCCCCC(=O)OCC(CCCCCC)CCCCCCCC)CCN(CCO)C1CCC1)OCCCCCCCC (stereo not shown) [Compound 33] | 5.943 | 94.30 | 0.06 | 63.54 |
| CCCCCCCCCCCCOCC(CN(CCCCCC(=O)OCC(CCCCCC)CCCCCCCC)CCN(CCO)C1CC1)OCCCCCCCC (stereo not shown) [Compound 34] | 5.482 | 89.60 | 0.103 | 58.33 |
| CCCCCCCCCCCCOCC(CN(CCCCCC(=O)OCC(CCCCCC)CCCCCCCC)CCN(CCO)C1CCCC1)OCCCCCCCC (stereo not shown) [Compound 35] | 5.940 | 96.80 | 0.1 | 56.71 |
| CCCCCCCCCCCCOCC(CN(CCCCCC(=O)OCC(CCCCCC)CCCCCCCC)CCN(CCO)C1CCCCC1)OCCCCCCCC (stereo not shown) [Compound 36] | 5.774 | 94.20 | 0.078 | 59.91 |
| CCCCCCCCCCCCOCC(CN(CCCCCC(=O)OCC(CCCCCC)CCCCCCCC)CCN(CCO)C1CCCCCC1)OCCCCCCCC (stereo not shown) [Compound 37] | 5.726 | 92.70 | 0.156 | 51.77 |
| CCCCCCCCCCCCOCC(CN(C)CCN(CCO)C1CCC1)OCCCCCC (stereo not shown) [Compound 38] | 6.971 | 76.2 | 0.194 | 97.62 |
| CCCCCCCCCCCCOCC(CN(C)CCN(CCO)C1CCC1)OCCCCCCCCCCCC (stereo not shown) [Compound 39] | 6.712 | 94.7 | 0.162 | 111.2 |
| CCCCCCCCCCCCOCC(CN(C)CCO)OC(=O)CCCCCCCCCCC (stereo not shown) [Compound 41] | 5.746 | 83.5 | 0.136 | 82.81 |
| CCCCCCCCCCCCOCC(CN(C)CCN(CCO)C1CCC1)OC(=O)CCCCCCCCCCC (stereo not shown) [Compound 42] | 6.283 | 94.4 | 0.155 | 82.81 |
| CCCCCCCCCOC(=O)CCOCC(CN(C)CCN(CCO)C1CCC1)OCCC(=O)OCCCCCCCCC (stereo not shown) [Compound 43] | 7.227 | 78.4 | 0.362 | 138.6 |
| CCCCCCCCCCCCOCC(CN(C)CCN(CCO)C1CCC1)OC(=O)CCCCC (stereo not shown) [Compound 44] | 6.65 | 85.2 | 0.178 | 112.8 |
| CCCCCCCCCCCCOCC(CN(C)CCN(CCO)C1CCCCC1)OCCCCCC (stereo not shown) [Compound 45] | 7.466 | 86.8 | 0.289 | 68.33 |
| CCCCCCCCCCCCCCCCCCOCC(CN(CCCCCC(=O)OCCCCCCCCCC)CCN(CCO)C1CCC1)OCCCCCC (stereo not shown) [Compound 46] | 6.047 | 95.9 | 0.039 | 103.3 |
| CCCCCCCCCCCCCCOC(COCCCCCCCCCCCC)CN(CCCCCC(=O)OCCCCCCCCCC)CCN(CCO)C1CCC1 (stereo not shown) [Compound 47] | 6.120 | 91.3 | 0.082 | 82.89 |
| CCCCCCCCCCCCOCC(CN(CCCCCC(=O)OCCCCCCCCCC)CCN(CCO)C1CCC1)OCCCCCCCC (stereo not shown) [Compound 48] | 6.263 | 91.7 | 0.113 | 79.39 |
| CCCCCCCCCCCCOCC(CN(CCCCCC(=O)OCCCCCCCCCC)CCN(CCO)C1CCC1)OCCCCCC (stereo not shown) [Compound 49] | 6.221 | 83.7 | 0.031 | 99.66 |
| CCCCCCCCC(CCCCCCCC)CNC(=O)CCOCC(CN(C)CCO)OCCC(=O)NCC(CCCCCCCC)CCCCCCCC (stereo not shown) [Compound 50] | 8.298 | 90.4 | 0.099 | 58.14 |
